# Reference: article PMC12133574 (Nature Immunology, 2025)
# Like-named read-outs stand apart in the source and are kept apart here.
# Experiments:
# [1] = tested on: activated human T cells (proliferation); experiment: cells; assay type: cell-based; details: for effect of the substance on T cell proliferation: activated human T cells; for restoration of adenosine-mediated inhibition of T cell proliferation: uridine, cytidine all 30 µM; for EC50: Homo sapiens, T-cell
# [2] = tested on: pyrimidine and purine metabolites in activated human T cells; assay type: cell-based; details: 24 h; for levels of UMP, UDP, UTP and CTP (metabolites downstream of UMPS) / levels of carbamoyl aspartate, DHO and orotate: adenosine-exposed activated human T cells
# [3] = tested on: activated human T cells (viability); assay type: cell-based; details: for effect of the substance on T cell viability: activated human T cells
# [4] = tested on: IFNγ production by activated human T cells; assay type: cell-based
# [5] = tested on: TNF production by activated human T cells; assay type: cell-based
# [6] = tested on: PD-1^+TIM-3^+CD39^+ CD8^+ TILs from NSCLC; assay type: cell-based, human; details: ex vivo stimulated PD-1^+TIM-3^+CD39^+ CD8^+ T cells, adenosine 100 µM, EOS301984 300 nM
# [7] = tested on: mitochondrial respiration of activated human T cells; assay type: cell-based
# [8] = tested on: NLVPMVATV peptide-pulsed T2 cells; experiment: Antigen-specific cell killing assay; assay type: cell-based, human
# activated human T cells = experiment: [3H]adenosine uptake assay; assay type: cell-based; details: dilazep 1 µM, one value per donor
# [9] = tested on: NLVPMVATV-specific CD8^+ T cells in PBMCs; experiment: CMV pp65 antigen recall assay, tetramer staining; assay type: cell-based, human; details: in the presence of ATP (300 µM); EOS301984 300 nM, anti-PD-1 10 µg ml^-1; representative donor
# [10] = in the presence of 100 µM adenosine, 72 h activation
molecule,measurement,setting,value
Nc1ccn([C@@H]2O[C@H](CO)[C@@H](O)[C@H]2O)c(=O)n1 [cytidine],effect of the substance on T cell proliferation,[1],did not suppress
same,restoration of adenosine-mediated inhibition of T cell proliferation,[1],not observed
"Nc1ncnc2c1ncn2[C@@H]1O[C@H](CO)[C@@H](O)[C@H]1O [Adenosine, adenosine]","levels of UMP, UDP, UTP and CTP (metabolites downstream of UMPS)",[2],dose-dependently depleted
same,"levels of carbamoyl aspartate, DHO and orotate",[2],increase
same,levels of adenosine metabolites (purines),[2]; adenosine-treated versus DMSO-treated T cells,Dose-dependent increases
same,effect of the substance on T cell viability,[3],loss of viability
same,effect of the substance on T cell proliferation,[1],inhibited
same,effect of the substance on IFNγ production,[4]; activated human T cells,inhibited
same,effect of the substance on TNF production,[5],inhibited
same,fraction of cells producing IFNγ and granzyme B,[6],suppressed
same,mitochondrial respiration (OCR),[7],reduced
"Anti-PD-1: anti-PD-1 antibody OPDIVO (nivolumab), Bristol-Myers Squibb [reference compound]",antigen-specific killing by the PBMC population,[8]; in the absence of ATP,did not have a clear effect
"Nc1ncnc2nc(-c3ccc(N4CCOCC4)nc3)cc(-c3cccc(Br)c3)c12 [ABT-702, 4-amino-5-(3-bromophenyl)-7-(6-morpholino-pyridin-3-yl)pyrido[2,3-d]pyrimidine, reference compound]","levels of UMP, UDP, UTP and CTP (metabolites downstream of UMPS)",[2],restored pyrimidine metabolism
same,EC50,"[1]; read-out: EC50, rescue of activated CD8^+ T cell proliferation",23.8 nM
"COc1cc(C(=O)OCCCN2CCCN(CCCOC(=O)c3cc(OC)c(OC)c(OC)c3)CC2)cc(OC)c1OC [Dilazep, dilazep, reference compound]","levels of UMP, UDP, UTP and CTP (metabolites downstream of UMPS)",[2],increased
same,"levels of carbamoyl aspartate, DHO and orotate",[2],reduced
same,restoration of T cell viability,[3]; [10],restored
same,restoration of T cell proliferation,[1]; [10],restored
same,IFNγ production,[4]; in the presence of 100 µM adenosine,restored
same,[3H]adenosine uptake,activated human T cells,reduced
"O=c1ccn([C@@H]2O[C@H](CO)[C@@H](O)[C@H]2O)c(=O)[nH]1 [Uridine, uridine]","levels of UMP, UDP, UTP and CTP (metabolites downstream of UMPS)",[2],normalized pyrimidine levels
same,EC50,"[1]; read-out: EC50, rescue of T cell proliferation",1100 nM
same,effect of the substance on T cell proliferation,[1],did not suppress
same,restoration of adenosine-mediated inhibition of T cell proliferation,[1],restored
Nc1ncnc2c1ncn2[C@@H]1O[C@H](COP(=O)(O)OP(=O)(O)OP(=O)(O)O)[C@@H](O)[C@H]1O [ATP],antigen-specific killing by the PBMC population,[8]; ATP present during the expansion phase,reduced
same,effect of the substance on T cell viability,[3],suppressed
same,effect of the substance on T cell proliferation,[1],suppressed
same,Tet^+ of CD8^+ T cells,[9],profound suppression
same,effect of the substance on TNF production,[5],suppressed
